Test results taken from patent US8916212B2, “Skin whitening composition containing chia seed extract” (Access Business Group International LLC, priority 2011, dated 2014).

Experiments:
melan-a cells = experiment: WST-1 assay for cell viability and cytotoxicity; format: cell-based, murine; conditions: at the concentrations tested
Method: (§1) Melan-a murine melanocytes (Wellcome Trust Functional Genomics Cell Bank, St. George Hospital, London, UK) were plated one day prior to treatment in 24 well plates at a density of 5×10^4 cells per well in 1 ml of melan-a cell medium (RPMI-1640, 10% Fetal Bovine Serum (FBS), 1% Penicillin/Streptomycin, 100 μM β-mercaptoethanol, 2 mM L-Glutamine and 200 nM Phorbol 12-myristate 13-acetate) in a 10% CO2 incubator maintained at 37° C. After seeding the cells for 24 hours in triplicate, cells were treated as indicated below. After two days of treatment, the culture media was changed and fresh samples were added and incubated overnight. The cells were initially tested for cell viability and cytoxicity using the WST-1 assay (Roche Applied Science). Following the WST-1 assay, the cells were washed in IX PBS and harvested in extraction buffer for melanin isolation and quantification.

[1] = system: Melan-a murine melanocytes; experiment: Melanin inhibition assay; format: cell-based; conditions: melan-a cells; for reduction in melanin content: 100 μg/ml in 0.36% pentylene glycol:0.036% DMSO, FIG. 3
Method: as §1
Cells from each well of the 24 well plate were harvested in cell lysis buffer (1% Triton X 100, 50 mM Tris, 2 mM EDTA, 150 mM NaCl, pH 7.5 supplemented with a complete protease inhibitor cocktail). Cell lysates were centrifuged at 20,000 g for 10 min at 4° C. Protein levels in the supernatant were quantified using a Pierce BCA Protein assay kit (Thermo Scientific Corp). Melanin-containing precipitates were washed in 100 μl of ethanol:ether (1:1) for 10 min at room temperature. The ethanol:ether solution was discarded and the melanin-pellets were dissolved in 200 μl of 2N NaOH in 20% DMSO solution and incubated at 70° C. for 60 min. The resulting melanin extract was analyzed by measuring absorbance at 490 nm. The melanin content in each sample was evaluated by normalizing each sample to the total amount of protein.

| Structure (SMILES) | cytotoxicity to melan-a cells (WST-1) (melan-a cells) | reduction in melanin content [1] | reduction of melanin content ([1]; positive control, FIG. 4 experiment) [%] |
| --- | --- | --- | --- |
| CCCCC/C=C\C/C=C\CCCCCCCC(=O)O [linoleic acid] | not cytotoxic | comparatively minor reductions |  |
| NC(=S)Nc1ccccc1 [phenylthiourea] |  |  | 70 |
| CC/C=C\C/C=C\C/C=C\CCCCCCCC(=O)O [α-linolenic acid] | not cytotoxic | comparatively minor reductions |  |
